Measurements from the supplement of paper PMC8149375.

Tests used:
Details in all cases: treatment: drug alone; 5 days
CAKI-1 [1] = experiment: AUC of dose-response viability curve, drug alone (arbitrary (AUC of normalised viability)); higher = less growth inhibition
Experimental: (§1)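 Primary HTS: 8 RCC cell lines treated with 8 doses (up to 10 uM) of each library drug alone for 5 days; viability read by CellTiter-Glo and normalised to DMSO. GI50 was fitted with XLfit (4-parameter), AUC is the area under the dose-response curve, and minimum viability is the lowest fraction of DMSO viability across doses.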

ACHN [2] = experiment: as above
Experimental: as §1

A498 [3] = experiment: as above
Experimental: as §1

769-P [4] = experiment: as above
Experimental: as §1

786-O [5] = experiment: as above
Experimental: as §1

SN12C [6] = experiment: as above
Experimental: as §1

TK-10 [7] = experiment: as above
Experimental: as §1

UO-31 [8] = experiment: as above
Experimental: as §1

CAKI-1 [9] = experiment: minimum viability across doses, drug alone, relative to DMSO (fraction); higher = less growth inhibition
Experimental: as §1

ACHN [10] = experiment: as above
Experimental: as §1

A498 [11] = experiment: as above
Experimental: as §1

769-P [12] = experiment: as above
Experimental: as §1

786-O [13] = experiment: as above
Experimental: as §1

SN12C [14] = experiment: as above
Experimental: as §1

TK-10 [15] = experiment: as above
Experimental: as §1

UO-31 [16] = experiment: as above
Experimental: as §1

CAKI-1 [17] = experiment: GI50, drug alone; higher = less potent
Experimental: as §1

ACHN [18] = experiment: GI50, drug alone; higher = less potent
Experimental: as §1

A498 [19] = experiment: GI50, drug alone; higher = less potent
Experimental: as §1

769-P [20] = experiment: GI50, drug alone; higher = less potent
Experimental: as §1

786-O [21] = experiment: GI50, drug alone; higher = less potent
Experimental: as §1

SN12C [22] = experiment: GI50, drug alone; higher = less potent
Experimental: as §1

TK-10 [23] = experiment: GI50, drug alone; higher = less potent
Experimental: as §1

UO-31 [24] = experiment: GI50, drug alone; higher = less potent
Experimental: as §1

Row | Structure (SMILES) | GI50, drug alone (ACHN [18]) [µM] | GI50, drug alone (786-O [21]) [µM] | AUC of dose-response viability curve (CAKI-1 [1]) | AUC of dose-response viability curve (ACHN [2]) | AUC of dose-response viability curve (A498 [3]) | AUC of dose-response viability curve (769-P [4]) | AUC of dose-response viability curve (786-O [5]) | AUC of dose-response viability curve (SN12C [6]) | AUC of dose-response viability curve (TK-10 [7]) | AUC of dose-response viability curve (UO-31 [8]) | minimum viability across doses (CAKI-1 [9]) | minimum viability across doses (ACHN [10]) | minimum viability across doses (A498 [11]) | minimum viability across doses (769-P [12]) | minimum viability across doses (786-O [13]) | minimum viability across doses (SN12C [14]) | minimum viability across doses (TK-10 [15]) | minimum viability across doses (UO-31 [16]) | GI50, drug alone (CAKI-1 [17]) [µM] | GI50, drug alone (A498 [19]) [µM] | GI50, drug alone (769-P [20]) [µM] | GI50, drug alone (SN12C [22]) [µM] | GI50, drug alone (TK-10 [23]) [µM] | GI50, drug alone (UO-31 [24]) [µM]
1 | Cn1cc(C2=C(c3ccc(Cl)cc3Cl)C(=O)NC2=O)c2ccccc21 | > 10 | > 10 | 0.987 | 3.26 | 3.79 | 3.2 | 3.26 | 3.43 | 3.26 | 3.98 | 0.839 | 0.821 | 0.907 | 0.386 | 0.814 | 0.908 | 0.629 | 0.801 | > 10 | > 10 | 8.53 | > 10 | > 10 | > 10
2 | O=C1c2ccccc2-c2n[nH]c3cccc1c23 | 8.89 | > 10 | 3.09 | 3.44 | 4.19 | 3.24 | 2.81 | 3.37 | 3.07 | 3.08 | 0.251 | 0.421 | 0.999 | 0.799 | 0.545 | 0.822 | 0.562 | 0.52 | 6.06 | > 10 | > 10 | > 10 | > 10 | > 10
3 | N#CC[C@H](C1CCCC1)n1cc(-c2ncnc3[nH]ccc23)cn1 | > 10 | 8.76 | 3.82 | 3.14 | 4.75 | 3.4 | 3.06 | 3.53 | 3.2 | 4.92 | 0.965 | 0.779 | 1.24 | 0.876 | 0.433 | 0.945 | 0.833 | 1.25 | > 10 | > 10 | > 10 | > 10 | > 10 | > 10
4 | CC(C)CC(=O)Nc1n[nH]c2c1CN(C(=O)C1CCN(C)CC1)C2(C)C | 0.276 | 0.12 | 2.75 | 1.92 | 2.94 | 3.01 | 1.4 | 1.9 | 2.7 | 3 | 0.0863 | 0.0324 | 0.00722 | 0.189 | 0.0023 | 0.0129 | 0.174 | 0.00653 | 1.77 | 1.48 | 4.34 | 0.262 | 3.08 | 1.06
5 | OCc1ccc(-c2ccc(-c3ccc(CO)s3)o2)s1 | 0.18 | 0.0275 | 0.628 | 1.76 | 3.4 | 1.27 | 1.04 | 2.29 | 1.03 | 2.33 | 0.00454 | 0.0234 | 0.419 | 0.056 | 0.00113 | 0.0662 | 0.032 | 0.0063 | 0.0112 | 7.46 | 0.0427 | 0.582 | 0.0294 | 0.389

More lines, main results first:

Row | GI50, drug alone (ACHN [18]) [µM] | GI50, drug alone (786-O [21]) [µM] | Structure (SMILES) | AUC of dose-response viability curve (CAKI-1 [1]) | AUC of dose-response viability curve (ACHN [2]) | AUC of dose-response viability curve (A498 [3]) | AUC of dose-response viability curve (769-P [4]) | AUC of dose-response viability curve (786-O [5]) | AUC of dose-response viability curve (SN12C [6]) | AUC of dose-response viability curve (TK-10 [7]) | AUC of dose-response viability curve (UO-31 [8]) | minimum viability across doses (CAKI-1 [9]) | minimum viability across doses (ACHN [10]) | minimum viability across doses (A498 [11]) | minimum viability across doses (769-P [12]) | minimum viability across doses (786-O [13]) | minimum viability across doses (SN12C [14]) | minimum viability across doses (TK-10 [15]) | minimum viability across doses (UO-31 [16]) | GI50, drug alone (CAKI-1 [17]) [µM] | GI50, drug alone (A498 [19]) [µM] | GI50, drug alone (769-P [20]) [µM] | GI50, drug alone (SN12C [22]) [µM] | GI50, drug alone (TK-10 [23]) [µM] | GI50, drug alone (UO-31 [24]) [µM]
6 | 9.97 | > 10 | Oc1ccc(-c2nc(-c3ccc(F)cc3)c(-c3ccncc3)[nH]2)cc1 | 3.25 | 2.91 | 4.09 | 3.41 | 3.04 | 3.4 | 2.88 | 4.47 | 0.637 | 0.473 | 1.02 | 0.904 | 0.65 | 0.936 | 0.659 | 0.308 | > 10 | > 10 | > 10 | > 10 | > 10 | > 10
7 | > 10 | > 10 | NC(=O)c1ccc(-c2nc(-c3ccc4c(c3)OCO4)c(-c3ccccn3)[nH]2)cc1 | 3.3 | 3.21 | 3.96 | 3.26 | 2.72 | 2.86 | 2.89 | 4.85 | 0.723 | 0.564 | 0.906 | 0.838 | 0.578 | 0.556 | 0.613 | 0.941 | > 10 | > 10 | > 10 | > 10 | > 10 | > 10
8 | 1.67 | 0.539 | O=C1NCCc2[nH]c(-c3ccncc3)cc21 | 3.31 | 2.7 | 3.22 | 3.24 | 2.22 | 3.27 | 2.88 | 3.43 | 0.12 | 0.0193 | 0.0125 | 0.75 | 0.00414 | 0.0279 | 0.188 | 0.00654 | 4.96 | 3.53 | > 10 | 3.68 | 3.62 | 2.46
9 | 0.142 | > 10 | CS(=O)c1ccc(-c2nc(-c3ccc(F)cc3)c(-c3ccncc3)[nH]2)cc1 (stereo not given) | 3.69 | 2.51 | 4.51 | 3.37 | 3.47 | 3.43 | 2.98 | 4.33 | 0.931 | 0.577 | 1.12 | 0.892 | 0.774 | 0.84 | 0.713 | 1.06 | > 10 | > 10 | > 10 | > 10 | > 10 | > 10
10 | 8.61 | 7.91 | CN(C)CCOc1ccc(-c2nc(-c3ccncc3)c(-c3ccc4c(c3)CC/C4=N/O)[nH]2)cc1 | 3.77 | 3.51 | 4.26 | 3.44 | 2.94 | 3.3 | 3.35 | 5.65 | 0.308 | 0.167 | 0.0435 | 0.177 | 0.0071 | 0.706 | 0.575 | 0.573 | 9.32 | 8.04 | 8.71 | > 10 | > 10 | > 10
